The results in this text go back to EP0643966A1, “SENSITIVITY ENHANCER FOR ANTINEOPLASIC AGENT” (KYOWA HAKKO KOGYO CO., LTD., priority 1993, dated 1994).

Structures are written as SMILES. Counter-ions that a name gives are not always drawn. Like-named read-outs stand apart in the source and are kept apart here.

Experiment [1] has as its system Adriamycin-Resistant Human Ovary Cancer Cells (A2780/ADM). Description: Test on Vindesine Resistance Using Adriamycin-Resistant Human Ovary Cancer Cells (A2780/ADM).
Method: (§1) A2780/ADM cells were diluted with an RPMI 1640 medium (430-1800 EB, produced by GIBCO) containing 10% fetal bovine serum (200-6140AG, produced by GIBCO) and 1% glutamine (320-5030 PG, produced by GIBCO) to a concentration of 30000 cells/ml. One milliliter of the cell suspension was inoculated to each well of a 24-well microtiter plate and cultured under conditions of 37°C, 5% CO₂, and a humidity of 95% or higher for 1 day. A mixture of 0.1 ml of a Vindesine solution diluted serially with the above medium and 0.1 ml of the above medium was added to each well as a control group. […] The cells in each well were further cultured under the same conditions as above for additional 3 days, and the number of the cells was counted with a Coulter counter to obtain a 50% growth inhibitory concentration (IC₅₀) of the control groups and the test groups.
Experiment [2] concerns Vincristine-Resistant Mouse Leukemia Cells (P388/VCR). As to the kind of experiment: Test on Vincristine Resistance Using Vincristine-Resistant Mouse Leukemia Cells (P388/VCR). Format: in vivo. Particulars: for T/C: P388/VCR-implanted CDF₁ mice. Here is the method:
Vincristine-resistant P388 cells (P388/VCR) were suspended in physiological saline, and 5x10⁶ cells/0.2 ml were intraperitoneally implanted to grouped 6-week-old CDF₁ strain male mice, each group consisting of 5 mice. A prescribed amount of Vincristine alone or a mixture of Vincristine and a test compound (I) was intraperitoneally administered for consecutive 5 days from the next day of the implantation. The effect of overcoming the drug resistance was evaluated in terms of T/C, a percentage of the number of survival days of a test group to the number of survival days of a control group.
Vincristine (VCR) used was Vincristine Sulfate, produced by Shionogi & Co., Ltd., dissolved in physiological saline. Compound (I) was suspended in a 0.3% aqueous solution of carboxymethyl cellulose and administered in an amount of 0.1 ml per 10 g-b.w. […]

The subject of experiment [3] is Adriamycin-Resistant Human Ovary Cancer Cells (A2780/ADM). Particulars: 72 h.
Method: as §1
Where [4] appears, read: A2780, 72 h, read-out: IC₅₀ of Test Compound Alone, A2780/ADM cells, test compound alone, 3 days culture, cell count.

On to `COC1C(N(C)CCOC(=O)N2CCN(C)CC2)CC2OC1(C)n1c3ccccc3c3c4c(c5c6ccccc6n2c5c31)C(=O)NC4O` (stereo not drawn) [Compound I-7], for which the IC50 in experiment [1] (setting [4]) is 9.5 µM.
Turning to `COC1C(N(C)C(=O)N2CCN(C)CC2)CC2OC1(C)n1c3ccccc3c3c4c(c5c6ccccc6n2c5c31)C(=O)NC4O` (stereo not drawn) [Compound I-3], the IC50 in experiment [1] (setting [4]) is 10 µM.
The T/C is the ratio of treated to control. In the case of `COC1C(N(C)C(=O)OCc2ccccc2)CC2OC1(C)n1c3ccccc3c3c4c(c5c6ccccc6n2c5c31)C(=O)N(C)C4` (stereo not drawn) [Compound I-2], the IC50 in experiment [1] (setting [4]) was more than 100 µM. The T/C in experiment [2] (Compound (I-2) alone 22.2 mg/kg i.p. for 5 consecutive days, survival days vs control) was determined as 102%; in experiment [2] (VCR 0.1 mg/kg + Compound (I-2) 22.2 mg/kg i.p. for 5 consecutive days) it was 152%. In addition, the “effect of overcoming the drug resistance” value in experiment [2] (P388/VCR-implanted mice, combined with Vincristine, statement in words) is on record as “excellent effects to overcome the drug resistance”.
For `CC[C@]1(O)C[C@@H]2CN(CCc3c([nH]c4ccccc34)[C@@](C(=O)OC)(c3cc4c(cc3OC)N(C)[C@H]3[C@@](O)(C(N)=O)[C@H](O)[C@]5(CC)C=CCN6CC[C@]43[C@@H]65)C2)C1` [Vindesine, reference compound], the IC50 in experiment [1] (A2780, read-out: IC₅₀ of Vindesine, A2780/ADM cells, control group: Vindesine alone, no test compound) stood at 1.3 µM.
For the compound `CCCOC(=O)C1(O)CC2OC1(C)n1c3ccccc3c3c4c(c5c6ccccc6n2c5c31)C(=O)NC4` (stereo not drawn) [Compound I-12], the IC50 in experiment [1] (setting [4]) came out at 0.42 µM.
Still for that read-out and setting: then `CNC1CC2OC(C)(C1OC)n1c3ccccc3c3c4c(c5c6ccccc6n2c5c31)C(=O)N(C)C4` (stereo not drawn) [Compound I-1], with 0.26 µM.
As to `COC(=O)C1(OC(C)=O)CC2OC1(C)n1c3ccccc3c3c4c(c5c6ccccc6n2c5c31)C(=O)N(C(C)=O)C4` (stereo not drawn) [Compound I-17], in experiment [1] (setting [4]), the IC50 is more than 100 µM.
On the same count and under the same terms, then `COC1C(N(C)C(=O)CN2CCOCC2)CC2OC1(C)n1c3ccccc3c3c4c(c5c6ccccc6n2c5c31)C(=O)NC4O` (stereo not drawn) [Compound I-4], with 7 µM; and `COC1C(N(C)C(=O)CN(C)C)CC2OC1(C)n1c3ccccc3c3c4c(c5c6ccccc6n2c5c31)C(=O)NC4O` (stereo not drawn) [Compound I-5], with 9.1 µM.
Still for that read-out and setting: then `CCCCOC(=O)C1(O)CC2OC1(C)n1c3ccccc3c3c4c(c5c6ccccc6n2c5c31)C(=O)NC4` (stereo not drawn) [Compound I-13], with 1.1 µM; and `CCCCCCOC(=O)C1(O)CC2OC1(C)n1c3ccccc3c3c4c(c5c6ccccc6n2c5c31)C(=O)NC4=O` (stereo not drawn) [Compound I-15], with 2.8 µM.
As to `COC1C(N(C)CCO)CC2OC1(C)n1c3ccccc3c3c4c(c5c6ccccc6n2c5c31)C(=O)NC4O` (single isomer, unassigned) [Compound I-8], in experiment [3], the IC50 came out at 17.2 µM.
Regarding `COC1C(N(C)C(=O)CN2CCN(C)CC2)CC2OC1(C)n1c3ccccc3c3c4c(c5c6ccccc6n2c5c31)C(=O)NC4O` (stereo not drawn) [Compound I-6], the IC50 in experiment [1] (setting [4]) worked out at 12.5 µM.
Consider `COC1C(N(C)CCO)CC2OC1(C)n1c3ccccc3c3c4c(c5c6ccccc6n2c5c31)C(=O)NC4O` (single isomer, unassigned) [Compound I-9], for which the IC50 in experiment [1] (setting [4]) was 9.2 µM.
For `CCOC(=O)C1(O)CC2OC1(C)n1c3ccccc3c3c4c(c5c6ccccc6n2c5c31)C(=O)NC4` (stereo not drawn) [Compound I-11], the IC50 in experiment [1] (setting [4]) was 0.16 µM; in experiment [1] (A2780, read-out: IC₅₀ of Vindesine, A2780/ADM cells, Vindesine with test compound at 0.05 µM), 0.77 µM.
Take `CCOC(=O)N(C)C1CC2OC(C)(C1OC)n1c3ccccc3c3c4c(c5c6ccccc6n2c5c31)C(=O)N(C)C4` (stereo not drawn) [Compound I-10]: the IC50 in experiment [1] (A2780, 72 h, read-out: IC₅₀ of Test Compound Alone) was more than 10 µM.
Consider `CC[C@]1(O)C[C@H]2CN(CCc3c([nH]c4ccccc34)[C@@](C(=O)OC)(c3cc4c(cc3OC)N(C=O)[C@H]3[C@@](O)(C(=O)OC)[C@H](OC(C)=O)[C@]5(CC)C=CCN6CC[C@]43[C@@H]65)C2)C1` [VCR, Vincristine Sulfate, reference compound], for which the T/C in experiment [2] (VCR alone 0.1 mg/kg i.p. for 5 consecutive days) is recorded as 112%; in experiment [2] (VCR alone 0.2 mg/kg i.p. for 5 consecutive days), 116%; in experiment [2] (VCR alone 0.4 mg/kg i.p. for 5 consecutive days), 121%.
Consider `CCCCCCOC(=O)C1(O)CC2OC1(C)n1c3ccccc3c3c4c(c5c6ccccc6n2c5c31)C(=O)NC4` (stereo not drawn) [Compound I-14], for which the IC50 in experiment [1] (setting [4]) turned out to be 4.8 µM.
